Experimental data as given in PMC10897015, “Investigation of anti-nociceptive, anti-inflammatory potential and ADMET studies of pure compounds isolated from Isodon rugosus Wall. ex Benth” (Frontiers in Pharmacology, 2024).
“And” between values parts separate entries of the source, which are not always exact repeats. Equal values may be shown once. Read-outs that look alike come from different tables or passages of the source.

Key:
[1] = target: T1, COX-2 (Homo sapiens, UniProt P35354); assay: Cyclooxygenase-2 inhibitory activity; assay type: biochemical; conditions: for inhibition at 62.5 µg/mL / inhibition at 250 µg/mL / inhibition at 500 µg/mL / inhibition at 1000 µg/mL: read-out: % inhibition, COX-2 (mean ± SEM); for Percent Inhibition (COX-2), single replicates: replicates 1-3; for IC50: COX-2
T1 sequence (P35354 18-604): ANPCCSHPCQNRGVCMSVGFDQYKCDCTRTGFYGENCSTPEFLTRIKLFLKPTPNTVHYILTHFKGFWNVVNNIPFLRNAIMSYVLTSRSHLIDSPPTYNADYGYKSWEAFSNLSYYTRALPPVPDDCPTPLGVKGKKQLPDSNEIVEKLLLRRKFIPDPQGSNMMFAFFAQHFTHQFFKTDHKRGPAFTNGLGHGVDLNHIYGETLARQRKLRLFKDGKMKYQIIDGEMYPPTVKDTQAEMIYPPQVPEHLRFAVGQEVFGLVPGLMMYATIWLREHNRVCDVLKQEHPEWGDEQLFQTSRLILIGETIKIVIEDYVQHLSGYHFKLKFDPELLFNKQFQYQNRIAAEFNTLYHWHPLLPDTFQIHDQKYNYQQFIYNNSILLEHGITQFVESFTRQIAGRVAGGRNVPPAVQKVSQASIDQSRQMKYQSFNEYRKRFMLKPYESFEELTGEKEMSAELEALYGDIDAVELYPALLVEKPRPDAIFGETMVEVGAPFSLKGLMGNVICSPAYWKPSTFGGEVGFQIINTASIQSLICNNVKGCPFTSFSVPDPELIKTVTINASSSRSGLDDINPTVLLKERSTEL
Method: An enzyme solution with a concentration of 300 U/ml was prepared and activated using ice for 5 min with a 50 µL cofactor solution containing glutathione (0.9 mM), TMPD (N,N,N,N_tetramethyl-p-phenylenediaminedihydrochloride) (0.24 mM), and hematin (1 mM) in Tris buffer (0.1 M) with pH 8. The enzyme solution (60 µL) and test samples (20 µL) with various concentrations were incubated at room temperature for 5 minutes. Celecoxib was used as a positive control in the current assay. The absorbance of the samples was measured at 570 nm after the samples had been incubated for 5 min. Arachidonic acid (30 mM, 20 µL) was added to initiate the reaction. The percent inhibition was calculated from the absorbance value per unit time.

[2] = tested on: Swiss albino mice; assay: Hot plate test with opioid receptor involvement; assay type: in vivo; conditions: for Reaction time on hot plate, individual values: single animals; for Reaction time on the hot plate: compounds 50 mg/kg, Mor 5 mg/kg, Nal 1 mg/kg
[3] = tested on: mice; assay: Carrageenan-induced paw edema; assay type: in vivo; conditions: for % edema volume inhibition (mean): aspirin 10 mg/kg; for Paw edema percent inhibition, individual values / Paw edema, individual values: single animals
Method: The animals under study were divided into different groups. Prior to the experiment, the animals had only access to water. […] Additionally, the isolated compounds being tested were given 30 min before injecting 0.05 ml of 1% carrageenan into the sub-plantar region of the paw. To measure the volume changes in the paw, a digital plethysmometer was employed. Readings were taken before and after the carrageenan injection at hourly intervals over a total period of 5 h.

O=C(CCc1ccc(O)cc1)c1c(O)cc(O)cc1O [Compound 2, 2-4-4-6-tetrahydroxy-dihydrochalcone]
% inhibition, COX-2 (mean ± SEM) ([1]; 62.5 µg/ml, listed as Comp 2): 31.8267%
inhibition at 62.5 µg/mL ([1]; 62.5 µg/ml): 31.9 ± 0.92%
% inhibition, COX-2 (mean ± SEM) ([1]; 250 µg/ml, listed as Comp 2): 41.1767%
inhibition at 250 µg/mL ([1]; 250 µg/ml): 41.1 ± 0.24%
% inhibition, COX-2 (mean ± SEM) ([1]; 500 µg/ml, listed as Comp 2): 45.1433%
inhibition at 500 µg/mL ([1]; 500 µg/ml): 45.1 ± 0.22%
% inhibition, COX-2 (mean ± SEM) ([1]; 1000 µg/ml, listed as Comp 2): 52.9867%
inhibition at 1000 µg/mL ([1]; 1000 µg/ml): 53 ± 0.79%
Percent Inhibition (COX-2), single replicates ([1]; 62.5, listed as Comp 2): 31.46% and 31.74% and 32.28%
Percent Inhibition (COX-2), single replicates ([1]; 125, listed as Comp 2): 37.07% and 37.62% and 35.7%
Percent Inhibition (COX-2), single replicates ([1]; 250, listed as Comp 2): 40.49% and 41.18% and 41.86%
Percent Inhibition (COX-2), single replicates ([1]; 500, listed as Comp 2): 45.69% and 44.6% and 45.14%
Percent Inhibition (COX-2), single replicates ([1]; 1000, listed as Comp 2): 50.07% and 54.17% and 54.72%
IC50 ([1]; read-out: IC50): 2880 µM
IC50 ([1]; read-out: IC50 (µg/ml) (converted)): 2880 µM
Reaction time on hot plate, individual values ([2]; at 15, listed as Comp-2): 3.02 and 3.9 and 4.6
Reaction time on hot plate, individual values ([2]; at 30, listed as Comp-2): 4.1 and 4.17 and 5.3
Reaction time on hot plate, individual values ([2]; at 45, listed as Comp-2): 3.12 and 2.58 and 4.1
Reaction time on hot plate, individual values ([2]; at 60, listed as Comp-2): 2.3
Reaction time on hot plate, individual values ([2]; at 90, listed as Comp-2): 2.06 and 2.49 and 3.99
Reaction time on the hot plate ([2]; at 15 min): 03.84 ± 0.03 s
Reaction time on the hot plate ([2]; at 15 min, listed as Comp-2): 3.84 s
Reaction time on the hot plate ([2]; at 30 min): 04.52 ± 0.09 s
Reaction time on the hot plate ([2]; at 30 min, listed as Comp-2): 4.523 s
Reaction time on the hot plate ([2]; at 45 min): 3.27 ± 0.48 s
Reaction time on the hot plate ([2]; at 45 min, listed as Comp-2): 3.267 s
Reaction time on the hot plate ([2]; at 60 min): 3.18 ± 0.34 s
Reaction time on the hot plate ([2]; at 60 min, listed as Comp-2): 3.183 s
Reaction time on the hot plate ([2]; at 90 min): 2.85 ± 0.29 s
Reaction time on the hot plate ([2]; at 90 min, listed as Comp-2): 2.847 s
% edema volume inhibition (mean) ([3]; 1st hour after carrageenan, listed as Comp 2): 36.72%
% edema volume inhibition (mean) ([3]; 2nd hour after carrageenan): 37.45%
% edema volume inhibition (mean) ([3]; 3rd hour after carrageenan): 39.6788%
% edema volume inhibition (mean) ([3]; 4th hour after carrageenan): 32.922%
% edema volume inhibition (mean) ([3]; 5th hour after carrageenan): 29.246%
Paw edema percent inhibition, individual values ([3]; hour 1, listed as Comp 2): 42.03% and 38.64% and 36.29% and 31.91% and 34.73%
Paw edema, individual values ([3]; hour 1, listed as Comp 2): 0.44 and 0.47 and 0.488 and 0.521 and 0.5
Paw edema percent inhibition, individual values ([3]; hour 2, listed as Comp 2): 38.57% and 37.62% and 36.26% and 39.35%
Paw edema, individual values ([3]; hour 2, listed as Comp 2): 0.454 and 0.461 and 0.471 and 0.45 and 0.457
Paw edema percent inhibition, individual values ([3]; hour 3, listed as Comp 2): 40.08% and 38.48% and 38.75% and 40.75% and 40.334%
Paw edema, individual values ([3]; hour 3, listed as Comp 2): 0.45 and 0.462 and 0.46 and 0.445 and 0.449
Paw edema percent inhibition, individual values ([3]; hour 4, listed as Comp 2): 32.11% and 31.19% and 31.85% and 32.63% and 36.83%
Paw edema, individual values ([3]; hour 4, listed as Comp 2): 0.518 and 0.525 and 0.52 and 0.514 and 0.482
Paw edema percent inhibition, individual values ([3]; hour 5, listed as Comp 2): 29.96% and 29.27% and 30.23% and 28.18% and 28.59%
Paw edema, individual values ([3]; hour 5, listed as Comp 2): 0.512 and 0.517 and 0.51 and 0.525 and 0.522

O=C(O)C=Cc1ccc(O)c(O)c1 [Compound 1, 3,4-dihydroxy-cinnamic acid]
% inhibition, COX-2 (mean ± SEM) ([1]; 62.5 µg/ml, listed as Comp 1): 51.9833%
inhibition at 62.5 µg/mL ([1]; 62.5 µg/ml): 51.6 ± 1.2%
% inhibition, COX-2 (mean ± SEM) ([1]; 250 µg/ml, listed as Comp 1): 62.5167%
inhibition at 250 µg/mL ([1]; 250 µg/ml): 62.5 ± 0.84%
% inhibition, COX-2 (mean ± SEM) ([1]; 500 µg/ml, listed as Comp 1): 68.4433%
inhibition at 500 µg/mL ([1]; 500 µg/ml): 68.42 ± 0.64%
% inhibition, COX-2 (mean ± SEM) ([1]; 1000 µg/ml): 72.63 ± 0.57 %
inhibition at 1000 µg/mL ([1]; 1000 µg/ml): 72.8%
Percent Inhibition (COX-2), single replicates ([1]; 62.5, listed as Comp 1): 51.85% and 51.98% and 52.12%
Percent Inhibition (COX-2), single replicates ([1]; 125, listed as Comp 1): 58.82% and 58.96% and 58.41%
Percent Inhibition (COX-2), single replicates ([1]; 250, listed as Comp 1): 62.79% and 63.2% and 61.56%
Percent Inhibition (COX-2), single replicates ([1]; 500, listed as Comp 1): 68.4% and 67.99% and 68.94%
Percent Inhibition (COX-2), single replicates ([1]; 1000, listed as Comp 1): 72.37% and 73.56% and 71.96%
Reaction time on hot plate, individual values ([2]; at 15, listed as Comp-1): 8.02 and 7.34 and 9.3
Reaction time on hot plate, individual values ([2]; at 30, listed as Comp-1): 7.19 and 7.2 and 7.18
Reaction time on hot plate, individual values ([2]; at 45, listed as Comp-1): 6.4 and 7.3 and 6.26
Reaction time on hot plate, individual values ([2]; at 60, listed as Comp-1): 8.1 and 9.57 and 7.46
Reaction time on hot plate, individual values ([2]; at 90, listed as Comp-1): 6.12 and 7.38 and 8.02
Reaction time on the hot plate ([2]; at 15 min): 08.22 ± 0.07 s
Reaction time on the hot plate ([2]; at 15 min, listed as Comp-1): 8.22 s
Reaction time on the hot plate ([2]; at 15 min, listed as compound 1): 08.22 ± 0.07 s
Reaction time on the hot plate ([2]; at 30 min): 07.19 ± 0.08 s
Reaction time on the hot plate ([2]; at 30 min, listed as Comp-1): 7.19 s
Reaction time on the hot plate ([2]; at 30 min, listed as compound 1): 07.19 ± 0.08 s
Reaction time on the hot plate ([2]; at 45 min): 6.65 ± 0.05 s
Reaction time on the hot plate ([2]; at 45 min, listed as Comp-1): 6.653 s
Reaction time on the hot plate ([2]; at 45 min, listed as compound 1): 6.65 ± 0.05 s
Reaction time on the hot plate ([2]; at 60 min): 8.38 ± 0.41 s
Reaction time on the hot plate ([2]; at 60 min, listed as Comp-1): 8.377 s
Reaction time on the hot plate ([2]; at 60 min, listed as compound 1): 8.38 ± 0.41 s
Reaction time on the hot plate ([2]; at 90 min): 7.17 ± 0.57 s
Reaction time on the hot plate ([2]; at 90 min, listed as Comp-1): 7.173 s
Reaction time on the hot plate ([2]; at 90 min, listed as compound 1): 7.17 ± 0.57 s
% edema volume inhibition (mean) ([3]; 1st hour after carrageenan): 48.042%
% edema volume inhibition (mean) ([3]; 2nd hour after carrageenan): 54.02%
% edema volume inhibition (mean) ([3]; 3rd hour after carrageenan): 54.008%
% edema volume inhibition (mean) ([3]; 4th hour after carrageenan): 56.40 ± 0.42%
% edema volume inhibition (mean) ([3]; 4th hour after carrageenan, listed as Comp 1): 56.094%
% edema volume inhibition (mean) ([3]; 5th hour after carrageenan): 53.076%
paw edema inhibition ([3]; at various intervals): > 50%
Paw edema percent inhibition, individual values ([3]; hour 1, listed as Comp 1): 50.39% and 48.96% and 47.65% and 47.13% and 46.08%
Paw edema, individual values ([3]; hour 1, listed as Comp 1): 0.38 and 0.391 and 0.401 and 0.405 and 0.413
Paw edema percent inhibition, individual values ([3]; hour 2, listed as Comp 1): 53.99% and 52.64% and 55.48% and 52.1% and 55.89%
Paw edema, individual values ([3]; hour 2, listed as Comp 1): 0.34 and 0.35 and 0.329 and 0.354 and 0.326
Paw edema percent inhibition, individual values ([3]; hour 3, listed as Comp 1): 54.46% and 55.39% and 53.53% and 52.73% and 53.93%
Paw edema, individual values ([3]; hour 3, listed as Comp 1): 0.342 and 0.335 and 0.349 and 0.355 and 0.346
Paw edema percent inhibition, individual values ([3]; hour 4, listed as Comp 1): 56.75% and 58.72% and 56.09% and 54.78% and 54.13%
Paw edema, individual values ([3]; hour 4, listed as Comp 1): 0.33 and 0.315 and 0.335 and 0.345 and 0.35
Paw edema percent inhibition, individual values ([3]; hour 5, listed as Comp 1): 54.17% and 56.22% and 50.75% and 53.76% and 50.48%
Paw edema, individual values ([3]; hour 5, listed as Comp 1): 0.335 and 0.32 and 0.36 and 0.338 and 0.362
